Test results from patent EP2875815A1, “N'-(2-(3-oxobenzo[d]isothiazol-2(3h)-yl)acetyl)adamantane-1-carbohydrazide as a novel inhibitor for staphylococcus aureus sortase a” (Latvian Biomedical Research and Study Centre, priority 2013, dated 2015).
In brackets after ≈: the same amount, converted by molar mass. Like-named read-outs stand apart in the source and are kept apart here.

Experiments:
NIH/3T3 cells = assay: Cytotoxicity (MTT cell growth inhibition) test; assay type: cell-based; settings: Mus musculus, read-out: 50% NIH/3T3 cell growth inhibition concentration, (IC50)
Procedure: (§1) These assays included determination of 50% SrtA inhibition concentration (IC50) of the newly synthesized derivative in dose-response experiments using the recombinant sortase A enzyme incubated with FRET peptide substrate containing the LPETG motif, minimal inhibitory concentration (MIC) test with two staphylococcal species to measure the antimicrobial efficacy of the new inhibitory molecule, and toxicity test using a normal mouse embryonic fibroblasts cell line NIH/3T3 to determine the cell growth IC50 inhibitory concentration.
The growth inhibitory effect of the newly synthesized compound was studied on NIH/3T3mouse fibroblast cell line. NIH/3T3 cells were seeded into 96-well microplates with initial density of 1x10^4 cells per well in DMEM culture medium with 10% FCS. After 24 hours of incubation, cells were exposed to a graded series of concentrations of chemical compounds for additional 48 hours. The cell medium was removed and 100 µl of fresh culture medium without phenol red and 1 mM MTT solution was added to each well. After 3 hours of incubation, an equal volume of 1% SDS-HCl solution was added and plates were incubated for additional 4 hours. Absorbance was measured at 570 nm and the data were fitted to a four parameter variable slope equation to determine the IC50 value. […]

S. aureus sortase A = biological target: T1, S. aureus sortase A (Staphylococcus aureus, UniProt Q2FV99); assay: SrtA enzyme FRET inhibition assay (recombinant sortase A, FRET peptide substrate with LPETG motif); assay type: biochemical; settings: SrtA inhib. concentration, means ±SD (n = 5)
T1 construct: expressed with an N-terminal deletion of 59 amino acid residues (SrtAΔNS9, residues 60-206); made in house
T1 sequence (Q2FV99 60-206): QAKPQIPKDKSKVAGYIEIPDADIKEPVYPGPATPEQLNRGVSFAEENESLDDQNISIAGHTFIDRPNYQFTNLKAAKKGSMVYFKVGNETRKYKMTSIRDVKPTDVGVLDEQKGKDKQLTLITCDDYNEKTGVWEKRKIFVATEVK
From the text: The catalytically active recombinant sortase A enzyme used for these studies was expressed with an N-terminal deletion of 59 amino acid residues (SrtAΔNS9, residues 60-206). The first step included high-throughput screening of potent S. aereus SrtA inhibitors and selection of new antibacterial substances as sortase A inhibitors. In order to identify potent inhibitors of S. aureus sortase A, a high-throughput screening (HTS) of a diverse library of 50,000 drug-like low-molecular weight molecules was performed, which led to the identification of novel promising drug candidates.
as §1
Values are means ±SD (n = 5).

SrtA = biological target: T2, SrtA (Staphylococcus aureus, UniProt Q2FV99); assay: Binding to SrtA monitored by 2D [15N,1H]-HSQC NMR spectroscopy, with dialysis; settings: 0.3 mM (1.0 equivalents) inhibitor, after dialysis against NMR sample buffer
T2 construct: expressed with an N-terminal deletion of 59 amino acid residues (SrtAΔNS9, residues 60-206); made in house
T2 sequence (Q2FV99 60-206): as above
From the text: • Fig. 1 - represents the binding of a selected inhibitor N-(adamantan-1-yl)-2-(3-oxo-2,3-dihydro-1,2-benzothiazol-2-yl)acetamide to SrtA monitored by 2D [^15N,^1H]-HSQC NMR spectroscopy. (a) Spectrum of SrtA in absence of inhibitor. […] (a) SrtA active site after modification by inhibitor. The inhibitor (in cyan) and near-by side chains of SrtA are shown with sticks and labeled. Side chains are colored according to their type: hydrophobic in yellow, negatively charged in red, positively charged in blue and hydrophilic in grey. Hydrogens are omitted for clarity. […] (c) Molecular surface representation of SrtA in complex with inhibitor. It can be seen in the figure that the inhibitor occupies almost all volume of the substrate pocket, the majority of interactions are hydrophobic and hydrogen bond is at the R139.
Determination of the complex structure of selected inhibitor and sortase enzyme was performed by using the nuclear magnetic resonance (NMR) spectroscopy methods. The collected NMR data allowed to specify the structure of inhibitory complexes.
To verify that the selected inhibitor can react with a cysteine thiol (such as the SrtA active site C 184) we performed a reaction with cysteine in the NMR tube and observed the formation of a covalent adduct (Figure 2). The chemical structure of the product was verified using proton 1D and 2D NMR methods.

S. epidermidis = assay: MIC test, broth dilution micromethod; assay type: cell-based; settings: Staphylococcus epidermidis; 24 hours at 37 °C, complete inhibition of cell growth
Procedure: as §1
(§2) The MIC values of test compounds that inhibited cell growth of Gram-positive Staphylococcus aureus and S. epidermidis were determined by broth dilution micromethod. A series of solutions with a range from 0.1 µg/ml to 400 µg/ml were made in using a logarithmical phase culture with OD600 = 0.1 (corresponds to ∼1.2 x 10^8 CFU/ml in 96-well plate standard. The plate was incubated at 37 °C for 24 hours and growth was assayed with a microplate reader by monitoring the absorption at 600 nm. All experiments were done in triplicate, and repeated three times.

Staphylococcus aureus = assay: MIC test, broth dilution micromethod; assay type: cell-based; settings: for MIC: Staphylococcus aureus, 24 hours at 37 °C, complete inhibition of cell growth, read-out: MIC, S.aureus
Procedure: as §1, §2

| SMILES | IC50 (NIH/3T3 cells; NIH3T3, 48 h) [µg/mL] | IC50 (S. aureus sortase A) [µM] | binding of inhibitor to SrtA (reversibility) (SrtA) | MIC (S. epidermidis) [µg/mL] | MIC (Staphylococcus aureus) [µg/mL] | IC50 (NIH/3T3 cells; NIH3T3, 48 hours exposure, MTT, mean of three independent experiments ±SD) [µg/mL] | MIC values of the new compound in comparison to the initial hit molecule (Staphylococcus aureus; average over S. aureus and S. epidermidis) [fold] |
| --- | --- | --- | --- | --- | --- | --- | --- |
| O=C(Cn1sc2ccccc2c1=O)NC12CC3CC(CC(C3)C1)C2 [N-(adamantan-1-yl)-2-(3-oxo-2,3-dihydro-1,2-benzothiazol-2-yl)acetamide] | 1.3 (≈ 3.8 µM) | 6.2 | irreversibly | 0.5 (≈ 1.46 µM) | 1 (≈ 2.92 µM) |  |  |
| O=C(Cn1sc2ccccc2c1=O)NNC(=O)C12CC3CC(CC(C3)C1)C2 [N'-(2-(3-oxobenzo[d]isothiazol-2(3H)-yl)acetyl)adamantane-1-carbohydrazide] |  | 3.8 |  | 4 (≈ 10.4 µM) | 16 (≈ 41.5 µM) | 12.1 (≈ 31.4 µM) | ~10 |
